Measured values from patent US20240336977A1, “MICRORNA-REGULATED BIOMARKERS AND DRUG TARGETS FOR IMPROVING DIAGNOSIS AND TREATMENT OF LUNG OR BREAST CANCER” (West Virginia University Board of Governors on behalf of …, priority 2023, published 2024).

Assays:
[1] = test system: MCF7 cells; assay: Drug sensitivity categorisation of breast cancer cell line MCF7; format: cell-based, human; conditions: Luminal A MCF7 cells; categorised from IC50, ln(IC50), EC50, ln(EC50)
Text: (§1) Drug Sensitivity Data of Breast Cancer Cell Lines The drug sensitivity data of breast cancer cell lines were obtained from two distinct sources. The first source was the Profiling Relative Inhibition Simultaneously in Mixtures (PRISM) [Corsello, S. M.; Nagari, R. T.; Spangler, R. D.; Rossen, J.; Kocak, M.; Bryan, J. G.; Humeidi, R.; Peck, D.; Wu, X.; Tang, A. A.; et al. Discovering the anti-cancer potential of non-oncology drugs by systematic viability profiling. Nature cancer 2020, 1, 235-248, doi:10.1038/s43018-019-0018-6] secondary screen data, which was provided in the DepMap 19Q4 data release (https://depmap.org/portal, accessed on 23 May 2023). The second source encompassed the Genomics of Drug Sensitivity in Cancer (GDSC1 and GDSC2) datasets [Yang, W.; Soares, J.; Greninger, P.; Edelman, E. J.; Lightfoot, H.; Forbes, S.; Bindal, N.; Beare, D.; Smith, J. A.; Thompson, I. R.; et al. Genomics of Drug Sensitivity in Cancer (GDSC): a resource for therapeutic biomarker discovery in cancer cells. Nucleic acids research 2013, 41, D955-961, doi:10.1093/nar/gksllll, Iorio, F.; Knijnenburg, T. A.; Vis, D. J.; Bignell, G. R.; Menden, M. P.; Schubert, M.; Aben, N.; Goncalves, E.; Barthorpe, S.; Lightfoot, H.; et al. A Landscape of Pharmacogenomic Interactions in Cancer. Cell 2016, 166, 740-754, doi:10.1016/j.cell.2016.06.017, Garnett, M. J.; Edelman, E. J.; Heidorn, S. J.; Greenman, C. D.; Dastur, A.; Lau, K. W.; Greninger, P.; Thompson, I. R.; Luo, X.; Soares, J.; et al. Systematic identification of genomic markers of drug sensitivity in cancer cells. Nature 2012, 483, 570-575, doi:10.1038/nature11005], which were made available through CancerRxGene (https://www.cancerrxgene.org/, accessed on 25 May 2023). In this study, we examined drug sensitivity using various measurements, including IC50, ln(IC50), EC50, and ln(EC50). Further details regarding the categorization of drug sensitivity and resistance can be found in our previous work [Ye, Q.; Mohamed, R.; Dukhlallah, D.; Gencheva, M.; Hu, G.; Pearce, M. C.; Kolluri, S. K.; Marsh, C. B.; Eubank, T. D.; Ivanov, A. V.; et al. Molecular Analysis of ZNF71 KRAB in Non-Small-Cell Lung Cancer. International journal of molecular sciences 2021, 22, doi:10.3390/ijms22073752, Ye, Q.; Singh, S.; Qian, P. R.; Guo, N. L. Immune-Omics Networks of CD27, PD1, and PDL1 in Non-Small Cell Lung Cancer. Cancers (Basel) 2021, 13, doi:10.3390/cancers13174296].
(§2) For drug sensitivity analysis, we classified the breast cancer cell lines as sensitive or resistant to each drug based on the measurements of IC50, ln(IC50), EC50, and ln(EC50), following the classification method described in our previous publications. Both mRNA and protein expression levels were considered in determining the association with drug sensitivity.

[2] = test system: HCC1937; assay: Drug sensitivity (PRISM) of breast cancer cell line HCC1937; format: cell-based, human; conditions: TNBC cell line HCC1937; categorised from IC50, ln(IC50), EC50, ln(EC50)
Text: as §1, §2
(§3) Drug Sensitivity in CCLE. This study used drug sensitivity data of human breast cancer cell lines from various sources. The DepMap portal provided the secondary Profiling Relative Inhibition Simultaneously in Mixtures (PRISM) [Corsello, S. M.; Nagari, R. T.; Spangler, R. D.; Rossen, J.; Kocak, M.; Bryan, J. G.; Humeidi, R.; Peck, D.; Wu, X.; Tang, A. A.; et al. Discovering the anti-cancer potential of non-oncology drugs by systematic viability profiling. Nat. Cancer 2020, 1, 235-248. https://doi.org/10.1038/s43018-019-0018-6] repurposing dataset (PRISM repurposing 19Q4, accessed on 3 Apr. 2023), which includes screening results of 1447 compounds in 22 human breast cancer cell lines. Additionally, we downloaded the Genomics of Drug Sensitivity in Cancer (GDSC1 and GDSC2) datasets [Yang, W.; Soares, J.; Greninger, P.; Edelman, E. J.; Lightfoot, H.; Forbes, S.; Bindal, N.; Beare, D.; Smith, J. A.; Thompson, I. R.; et al. Genomics of Drug Sensitivity in Cancer (GDSC): A resource for therapeutic biomarker discovery in cancer cells. […]

[3] = test system: HCC1806; assay: Drug sensitivity categorisation of breast cancer cell line HCC1806; format: cell-based, human; conditions: TNBC cell line HCC1806; categorised from IC50, ln(IC50), EC50, ln(EC50)
Text: as §1, §2

[4] = test system: human NSCLC cell lines; assay: PRISM drug response (IC50/EC50) in CCLE NSCLC cell lines; format: cell-based; conditions: average across CCLE human NSCLC cell lines, PRISM data
Text: Drug Response. The PRISM (Profiling Relative Inhibition Simultaneously in Mixtures) framework [Corsello, S. M., et al., Discovering the anti-cancer potential of non-oncology drugs by systematic viability profiling. […] 235-248] is a computational tool that estimates drug sensitivities of cancer cell lines using molecular profiling data, particularly gene expression data from the CCLE database. It was obtained the PRISM repurposing dataset of the secondary screen from DepMap release PRISM Repur-posing 19Q4 (https://depmap.org/portal/download/all/, accessed on 25 Jan. 2023). For this study, the PRISM drug response data was used from 94 NSCLC cell lines for 1,448 compounds to investigate the drug sensitivity of specific genes.

[5] = test system: HCC38; assay: Drug sensitivity (PRISM) of breast cancer cell line HCC38; format: cell-based, human; conditions: TNBC cell line HCC38; categorised from IC50, ln(IC50), EC50, ln(EC50)
Text: as §1, §2, §3

[6] = Phase I clinical trials; cited from earlier work
[7] = Phase II clinical studies; cited from earlier work
[8] = test system: HCC1143; assay: Drug sensitivity categorisation of breast cancer cell line HCC1143; format: cell-based, human; conditions: TNBC cell line HCC1143; categorised from IC50, ln(IC50), EC50, ln(EC50)
Text: as §1, §2

[9] = test system: T47D breast cancer cells; conditions: cited from earlier work
[10] = test system: advanced solid tumors; conditions: Phase I, cited from earlier work
[11] = patients with advanced solid tumors

Row | Compound | cell line sensitive or resistant to drug [1] | cell line sensitive or resistant to drug [2] | cell line sensitive or resistant to drug [3] | cell line sensitive or resistant to drug [5] | cell line sensitive or resistant to drug [8] | further results
1 | N#C/C(=C(/N)Sc1ccc(N)cc1)c1ccccc1C(F)(F)F [BRD-K12244279] | resistant |  |  |  |  | 
2 | Cc1cnc(Nc2ccc(OCCN3CCCC3)cc2)nc1Nc1cccc(S(=O)(=O)NC(C)(C)C)c1 [TG101348] | sensitive | sensitive | sensitive |  |  | 
3 | COc1cccc2c1C(=O)c1c(O)c3c(c(O)c1C2=O)C[C@@](O)(C(C)=O)C[C@@H]3O[C@H]1C[C@H](N)[C@H](O)[C@H](C)O1 [daunorubicin] |  |  |  |  |  | averaged IC50 and EC50 [4]: low
4 | CNC(=O)c1cc(Oc2ccc(NC(=O)Nc3ccc(Cl)c(C(F)(F)F)c3)cc2)ccn1 [sorafenib] |  |  | sensitive | sensitive |  | 
5 | O=C(NOCC1CC1)c1ccc(F)c(F)c1Nc1ccc(I)cc1Cl [PD184352] | sensitive |  |  | resistant | sensitive | tolerability [6]: well tolerated; efficacy [7]: insufficient efficacy
6 | N#CC(=C(/N)Sc1ccccc1N)/C(C#N)=C(\N)Sc1ccccc1N [U0126] | sensitive |  |  |  |  | ERK phosphorylation response to MEK inhibition [9]: resistance
7 | Cc1cn(-c2cc(NC(=O)c3ccc(C)c(Nc4nccc(-c5cccnc5)n4)c3)cc(C(F)(F)F)c2)cn1 [nilotinib] |  | resistant | sensitive | resistant | resistant | 
8 | C(#CCN1CCCC1)CN1CCCC1 [tremorine] |  | sensitive | sensitive | sensitive | sensitive | 
9 | C[C@@H](N)[C@H]1CC[C@H](C(=O)Nc2ccncc2)CC1 [Y-27632] |  |  | sensitive | sensitive | sensitive | 
10 | CC[C@@H]1C(=O)OC[C@@H]1Cc1cncn1C [pilocarpine] |  | sensitive | sensitive | sensitive | sensitive | 
11 | O=C(Nc1cccc(Nc2ncc(Br)c(NCCc3cnc[nH]3)n2)c1)N1CCCC1 [BX-912] |  |  |  |  |  | averaged IC50 and EC50 [4]: low
12 | c1ccc2c(CCNc3ccc(Nc4ccncc4)cc3)c[nH]c2c1 [serdemetan] |  |  |  | sensitive | sensitive | tumor response ([10]; a breast cancer patient): partial response; QTc liability [10, 11]: exposure-related QTc liability; tolerability [10, 11]: well tolerated
13 | Cc1cc(I)ccc1Nc1c(C(=O)NOCC2CC2)cc(F)c(F)c1F [PD198306] | sensitive | resistant | sensitive | resistant | sensitive | ERK phosphorylation response to MEK inhibition [9]: resistance
14 | O=C(NC[C@H](O)CO)c1ccncc1Nc1ccc(I)cc1F [AS703026] |  | resistant | resistant |  |  | 
15 | O=C(NOC[C@H](O)CO)c1ccc(F)c(F)c1Nc1ccc(I)cc1F [PD0325901] | resistant | resistant | sensitive | resistant | sensitive | 
16 | OCc1ccc(-c2ccc(-c3ccc(CO)s3)o2)s1 [RITA] | sensitive | sensitive | sensitive | sensitive | sensitive | 
17 | COc1cccc(-c2cc(=O)c3ccccc3o2)c1N [PD98059] | sensitive | resistant | sensitive | sensitive |  | ERK phosphorylation response to MEK inhibition [9]: resistance
